Measurements from patent US11083725B2 (priority 2014, dated 2021).

Test system: NHBE cells
Assay: Biolog metabolic array: substrate use by NHBE cells with or without CA09 infection
Type: cell-based, human
Conditions: for Substrate use, 590 nm absorbance normalized to zero hour, 5 hr: Biolog PMM2, 5 hr; for Substrate use, 590 nm absorbance normalized to zero hour, 7 hr: Biolog PMM2, 7 hr; for Substrate use, 590 nm absorbance normalized to zero hour, 1 hr: Biolog PMM2, 1 hr
[1] = Control (uninfected) NHBE cells
[2] = Virus (CA09-infected, MOI 1) NHBE cells
[3] = Virus: CA09-infected NHBE cells, MOI 1, Biolog PMM2
[4] = Virus (CA09, MOI 1) infected NHBE cells

Dextrin
590 nm absorbance normalized to zero hour (substrate use), 0 hr [1]: 1.00 | 590 nm absorbance normalized to zero hour (substrate use), 2 hr [1]: 3.19 | 590 nm absorbance normalized to zero hour (substrate use), 3 hr [1]: 4.01 | 590 nm absorbance normalized to zero hour (substrate use), 6 hr [1]: 4.79 | 590 nm absorbance normalized to zero hour (substrate use), 8 hr [1]: 8.34 | 590 nm absorbance normalized to zero hour (substrate use), 9 hr [1]: 9.71 | 590 nm absorbance normalized to zero hour (substrate use), 10 hr [1]: 8.28 | 590 nm absorbance normalized to zero hour (substrate use), 11 hr [1]: 8.41 | Substrate use, 590 nm absorbance normalized to zero hour, 0 hr (Control (uninfected) NHBE cells, Biolog PMM2, 0 hr): 1.00 | Substrate use, 590 nm absorbance normalized to zero hour, 5 hr [1]: 6.14 | Substrate use, 590 nm absorbance normalized to zero hour, 7 hr [1]: 7.35 | 590 nm absorbance normalized to zero hour (substrate use), 0 hr [2]: 1.00 | 590 nm absorbance normalized to zero hour (substrate use), 1 hr [2]: 2.14 | 590 nm absorbance normalized to zero hour (substrate use), 2 hr [2]: 2.79 | 590 nm absorbance normalized to zero hour (substrate use), 3 hr [2]: 3.43 | 590 nm absorbance normalized to zero hour (substrate use), 4 hr [2]: 3.84 | 590 nm absorbance normalized to zero hour (substrate use), 5 hr [2]: 4.91 | 590 nm absorbance normalized to zero hour (substrate use), 6 hr [2]: 5.56 | 590 nm absorbance normalized to zero hour (substrate use), 7 hr [2]: 6.11 | 590 nm absorbance normalized to zero hour (substrate use), 8 hr [2]: 6.72 | 590 nm absorbance normalized to zero hour (substrate use), 9 hr [2]: 7.89 | 590 nm absorbance normalized to zero hour (substrate use), 10 hr [2]: 8.23 | 590 nm absorbance normalized to zero hour (substrate use), 11 hr [2]: 6.40 | 590 nm absorbance normalized to zero hour (substrate use), 0 hr [3]: 1.00 | 590 nm absorbance normalized to zero hour (substrate use), 1 hr [3]: 2.14 | 590 nm absorbance normalized to zero hour (substrate use), 2 hr [3]: 2.79 | 590 nm absorbance normalized to zero hour (substrate use), 3 hr [3]: 3.43 | 590 nm absorbance normalized to zero hour (substrate use), 4 hr [3]: 3.84 | 590 nm absorbance normalized to zero hour (substrate use), 5 hr [3]: 4.91 | 590 nm absorbance normalized to zero hour (substrate use), 6 hr [3]: 5.56 | 590 nm absorbance normalized to zero hour (substrate use), 7 hr [3]: 6.11 | 590 nm absorbance normalized to zero hour (substrate use), 8 hr [3]: 6.72 | 590 nm absorbance normalized to zero hour (substrate use), 9 hr [3]: 7.89 | 590 nm absorbance normalized to zero hour (substrate use), 10 hr [3]: 8.23 | 590 nm absorbance normalized to zero hour (substrate use), 11 hr [3]: 6.40

O=C(O)CC(O)(CC(=O)O)C(=O)O [Citric Acid]
590 nm absorbance normalized to zero hour (substrate use), 1 hr [1]: 1.40 | 590 nm absorbance normalized to zero hour (substrate use), 2 hr [1]: 1.41 | 590 nm absorbance normalized to zero hour (substrate use), 3 hr [1]: 1.16 | 590 nm absorbance normalized to zero hour (substrate use), 4 hr [1]: 1.15 | 590 nm absorbance normalized to zero hour (substrate use), 6 hr [1]: 1.07 | 590 nm absorbance normalized to zero hour (substrate use), 8 hr [1]: 1.05 | 590 nm absorbance normalized to zero hour (substrate use), 9 hr [1]: 1.05 | 590 nm absorbance normalized to zero hour (substrate use), 10 hr [1]: 1.05 | 590 nm absorbance normalized to zero hour (substrate use), 11 hr [1]: 1.04 | Substrate use, 590 nm absorbance normalized to zero hour, 1 hr [1]: 1.40 | Substrate use, 590 nm absorbance normalized to zero hour, 5 hr [1]: 1.22 | Substrate use, 590 nm absorbance normalized to zero hour, 7 hr [1]: 1.04 | 590 nm absorbance normalized to zero hour (substrate use), 1 hr [2]: 1.54 | 590 nm absorbance normalized to zero hour (substrate use), 2 hr [2]: 1.94 | 590 nm absorbance normalized to zero hour (substrate use), 3 hr [2]: 2.21 | 590 nm absorbance normalized to zero hour (substrate use), 4 hr [2]: 2.31 | 590 nm absorbance normalized to zero hour (substrate use), 5 hr [2]: 2.64 | 590 nm absorbance normalized to zero hour (substrate use), 6 hr [2]: 2.74 | 590 nm absorbance normalized to zero hour (substrate use), 7 hr [2]: 2.85 | 590 nm absorbance normalized to zero hour (substrate use), 8 hr [2]: 2.95 | 590 nm absorbance normalized to zero hour (substrate use), 9 hr [2]: 3.10 | 590 nm absorbance normalized to zero hour (substrate use), 10 hr [2]: 2.94 | 590 nm absorbance normalized to zero hour (substrate use), 11 hr [2]: 2.81 | 590 nm absorbance normalized to zero hour (substrate use), 1 hr [3]: 1.54 | 590 nm absorbance normalized to zero hour (substrate use), 2 hr [3]: 1.94 | 590 nm absorbance normalized to zero hour (substrate use), 3 hr [3]: 2.21 | 590 nm absorbance normalized to zero hour (substrate use), 4 hr [3]: 2.31 | 590 nm absorbance normalized to zero hour (substrate use), 5 hr [3]: 2.64 | 590 nm absorbance normalized to zero hour (substrate use), 6 hr [3]: 2.74 | 590 nm absorbance normalized to zero hour (substrate use), 7 hr [3]: 2.85 | 590 nm absorbance normalized to zero hour (substrate use), 8 hr [3]: 2.95 | 590 nm absorbance normalized to zero hour (substrate use), 9 hr [3]: 3.10 | 590 nm absorbance normalized to zero hour (substrate use), 10 hr [3]: 2.94 | 590 nm absorbance normalized to zero hour (substrate use), 11 hr [3]: 2.81

COC(=O)CCC(=O)O [Mono Methyl Succinate]
590 nm absorbance normalized to zero hour (substrate use), 1 hr [1]: 1.07 | 590 nm absorbance normalized to zero hour (substrate use), 2 hr [1]: 1.14 | 590 nm absorbance normalized to zero hour (substrate use), 3 hr [1]: 1.10 | 590 nm absorbance normalized to zero hour (substrate use), 4 hr [1]: 1.10 | 590 nm absorbance normalized to zero hour (substrate use), 6 hr [1]: 0.53 | 590 nm absorbance normalized to zero hour (substrate use), 8 hr [1]: 1.09 | 590 nm absorbance normalized to zero hour (substrate use), 9 hr [1]: 1.11 | 590 nm absorbance normalized to zero hour (substrate use), 10 hr [1]: 1.11 | 590 nm absorbance normalized to zero hour (substrate use), 11 hr [1]: 1.11 | Substrate use, 590 nm absorbance normalized to zero hour, 1 hr [1]: 1.07 | Substrate use, 590 nm absorbance normalized to zero hour, 5 hr [1]: 1.13 | Substrate use, 590 nm absorbance normalized to zero hour, 7 hr [1]: 1.07 | 590 nm absorbance normalized to zero hour (substrate use), 1 hr [2]: 1.44 | 590 nm absorbance normalized to zero hour (substrate use), 2 hr [2]: 1.71 | 590 nm absorbance normalized to zero hour (substrate use), 3 hr [2]: 1.97 | 590 nm absorbance normalized to zero hour (substrate use), 4 hr [2]: 2.04 | 590 nm absorbance normalized to zero hour (substrate use), 5 hr [2]: 2.16 | 590 nm absorbance normalized to zero hour (substrate use), 6 hr [2]: 2.33 | 590 nm absorbance normalized to zero hour (substrate use), 7 hr [2]: 2.40 | 590 nm absorbance normalized to zero hour (substrate use), 8 hr [2]: 2.45 | 590 nm absorbance normalized to zero hour (substrate use), 9 hr [2]: 2.58 | 590 nm absorbance normalized to zero hour (substrate use), 10 hr [2]: 2.55 | 590 nm absorbance normalized to zero hour (substrate use), 11 hr [2]: 2.67 | 590 nm absorbance normalized to zero hour (substrate use), 1 hr [3]: 1.44 | 590 nm absorbance normalized to zero hour (substrate use), 2 hr [3]: 1.71 | 590 nm absorbance normalized to zero hour (substrate use), 3 hr [3]: 1.97 | 590 nm absorbance normalized to zero hour (substrate use), 4 hr [3]: 2.04 | 590 nm absorbance normalized to zero hour (substrate use), 5 hr [3]: 2.16 | 590 nm absorbance normalized to zero hour (substrate use), 6 hr [3]: 2.33 | 590 nm absorbance normalized to zero hour (substrate use), 7 hr [3]: 2.40 | 590 nm absorbance normalized to zero hour (substrate use), 8 hr [3]: 2.45 | 590 nm absorbance normalized to zero hour (substrate use), 9 hr [3]: 2.58 | 590 nm absorbance normalized to zero hour (substrate use), 10 hr [3]: 2.55 | 590 nm absorbance normalized to zero hour (substrate use), 11 hr [3]: 2.67

O=C[C@H](O)[C@@H](O)[C@H](O)[C@H](O)C(=O)O [D-Glucuronic Acid]
590 nm absorbance normalized to zero hour (substrate use), 1 hr [1]: 1.13 | 590 nm absorbance normalized to zero hour (substrate use), 2 hr [1]: 1.37 | 590 nm absorbance normalized to zero hour (substrate use), 3 hr [1]: 1.29 | 590 nm absorbance normalized to zero hour (substrate use), 4 hr [1]: 1.42 | 590 nm absorbance normalized to zero hour (substrate use), 6 hr [1]: 0.86 | 590 nm absorbance normalized to zero hour (substrate use), 8 hr [1]: 1.83 | 590 nm absorbance normalized to zero hour (substrate use), 9 hr [1]: 1.90 | 590 nm absorbance normalized to zero hour (substrate use), 10 hr [1]: 2.04 | 590 nm absorbance normalized to zero hour (substrate use), 11 hr [1]: 2.34 | Substrate use, 590 nm absorbance normalized to zero hour, 1 hr [1]: 1.13 | Substrate use, 590 nm absorbance normalized to zero hour, 5 hr [1]: 1.57 | Substrate use, 590 nm absorbance normalized to zero hour, 7 hr [1]: 1.71 | Substrate use, 590 nm absorbance normalized to zero hour, 1 hr [4]: 1.44 | Substrate use, 590 nm absorbance normalized to zero hour, 5 hr [4]: 2.79 | Substrate use, 590 nm absorbance normalized to zero hour, 7 hr [4]: 3.14 | 590 nm absorbance normalized to zero hour (substrate use), 1 hr [2]: 1.44 | 590 nm absorbance normalized to zero hour (substrate use), 2 hr [2]: 1.90 | 590 nm absorbance normalized to zero hour (substrate use), 3 hr [2]: 2.18 | 590 nm absorbance normalized to zero hour (substrate use), 4 hr [2]: 2.37 | 590 nm absorbance normalized to zero hour (substrate use), 6 hr [2]: 2.96 | 590 nm absorbance normalized to zero hour (substrate use), 8 hr [2]: 3.24 | 590 nm absorbance normalized to zero hour (substrate use), 9 hr [2]: 3.62 | 590 nm absorbance normalized to zero hour (substrate use), 10 hr [2]: 3.66 | 590 nm absorbance normalized to zero hour (substrate use), 11 hr [2]: 3.99
